Source: ChEMBL document CHEMBL4630901 (2021)

Tests used:
Conditions in all cases: Compound concentration 10.0 uM
[1] = target: GABA-A receptor; anion channel (Rattus norvegicus) (UniProt O09028+P15431+P18506+P18508+P19969+P20236+P23574+P23576+P28471+P28473+P30191+P62813+P63079+P63138+Q91ZM7+Q9ES14)
[2] = target: 5-hydroxytryptamine receptor 2B (Homo sapiens) (UniProt P41595)
[3] = target: 5-hydroxytryptamine receptor 1B (Homo sapiens) (UniProt P28222)
[4] = target: Sodium-dependent serotonin transporter (Homo sapiens) (UniProt P31645)
[5] = target: T1, 5-hydroxytryptamine receptor 2C (Homo sapiens) (UniProt P28335)
T1 sequence (whole entry): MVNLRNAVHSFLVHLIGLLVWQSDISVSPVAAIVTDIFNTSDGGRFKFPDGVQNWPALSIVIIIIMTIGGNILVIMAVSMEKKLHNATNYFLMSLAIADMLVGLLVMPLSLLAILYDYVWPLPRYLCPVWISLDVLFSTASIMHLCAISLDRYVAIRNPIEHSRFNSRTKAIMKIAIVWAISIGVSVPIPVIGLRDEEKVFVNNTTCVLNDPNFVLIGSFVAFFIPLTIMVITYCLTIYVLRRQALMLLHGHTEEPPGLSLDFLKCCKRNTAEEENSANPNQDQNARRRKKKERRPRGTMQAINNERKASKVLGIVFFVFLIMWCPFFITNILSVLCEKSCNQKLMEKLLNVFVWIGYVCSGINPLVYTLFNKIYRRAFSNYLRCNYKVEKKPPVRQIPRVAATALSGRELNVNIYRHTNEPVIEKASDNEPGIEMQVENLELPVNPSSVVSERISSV

[6] = target: Alpha-1B adrenergic receptor (Homo sapiens) (UniProt P35368)
Chain of Alpha-1B adrenergic receptor (Homo sapiens) (P35368 whole entry): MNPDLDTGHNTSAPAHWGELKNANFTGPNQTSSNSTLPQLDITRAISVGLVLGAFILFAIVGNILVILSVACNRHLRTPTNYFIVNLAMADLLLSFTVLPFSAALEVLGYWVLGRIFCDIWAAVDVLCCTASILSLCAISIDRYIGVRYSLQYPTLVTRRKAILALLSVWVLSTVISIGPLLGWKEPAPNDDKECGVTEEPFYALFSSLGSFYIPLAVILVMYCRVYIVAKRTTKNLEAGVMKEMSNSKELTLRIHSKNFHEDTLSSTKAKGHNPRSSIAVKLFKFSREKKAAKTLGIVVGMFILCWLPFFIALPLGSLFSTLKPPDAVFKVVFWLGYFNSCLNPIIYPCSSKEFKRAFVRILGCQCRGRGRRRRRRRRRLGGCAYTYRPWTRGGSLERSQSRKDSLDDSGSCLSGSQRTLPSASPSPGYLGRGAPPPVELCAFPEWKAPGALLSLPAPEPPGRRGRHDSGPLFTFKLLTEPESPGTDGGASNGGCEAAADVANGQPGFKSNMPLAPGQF

[7] = target: D(4) dopamine receptor (Homo sapiens) (UniProt P21917)
Chain of D(4) dopamine receptor (Homo sapiens) (P21917 whole entry): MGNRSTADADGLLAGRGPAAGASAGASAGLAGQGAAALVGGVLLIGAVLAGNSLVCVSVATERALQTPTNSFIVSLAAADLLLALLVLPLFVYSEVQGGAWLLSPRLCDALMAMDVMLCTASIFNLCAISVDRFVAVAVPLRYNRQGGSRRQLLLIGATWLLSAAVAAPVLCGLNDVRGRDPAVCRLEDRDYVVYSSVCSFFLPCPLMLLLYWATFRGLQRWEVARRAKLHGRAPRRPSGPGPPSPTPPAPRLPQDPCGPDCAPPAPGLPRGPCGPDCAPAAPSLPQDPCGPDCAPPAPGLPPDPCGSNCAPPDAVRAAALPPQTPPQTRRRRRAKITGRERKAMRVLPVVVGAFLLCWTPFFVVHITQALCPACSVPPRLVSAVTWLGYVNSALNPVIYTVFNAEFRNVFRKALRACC

[8] = target: 5-hydroxytryptamine receptor 7 (Homo sapiens) (UniProt P34969)
Chain of 5-hydroxytryptamine receptor 7 (Homo sapiens) (P34969 whole entry): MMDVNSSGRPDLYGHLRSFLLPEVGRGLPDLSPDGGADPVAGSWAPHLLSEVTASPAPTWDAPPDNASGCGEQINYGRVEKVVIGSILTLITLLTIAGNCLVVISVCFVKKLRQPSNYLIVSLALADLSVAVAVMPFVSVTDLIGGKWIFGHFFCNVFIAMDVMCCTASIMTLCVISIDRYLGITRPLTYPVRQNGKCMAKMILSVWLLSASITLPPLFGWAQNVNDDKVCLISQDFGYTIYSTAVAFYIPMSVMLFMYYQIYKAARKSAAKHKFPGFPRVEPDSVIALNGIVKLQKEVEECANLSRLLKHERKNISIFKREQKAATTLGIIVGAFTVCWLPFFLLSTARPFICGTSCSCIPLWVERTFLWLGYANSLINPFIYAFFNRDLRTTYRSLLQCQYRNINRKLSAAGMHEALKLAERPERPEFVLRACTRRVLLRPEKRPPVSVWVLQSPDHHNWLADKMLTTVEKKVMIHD

[9] = target: Muscarinic acetylcholine receptor M3 (Homo sapiens) (UniProt P20309)
Chain of Muscarinic acetylcholine receptor M3 (Homo sapiens) (P20309 whole entry, looked up): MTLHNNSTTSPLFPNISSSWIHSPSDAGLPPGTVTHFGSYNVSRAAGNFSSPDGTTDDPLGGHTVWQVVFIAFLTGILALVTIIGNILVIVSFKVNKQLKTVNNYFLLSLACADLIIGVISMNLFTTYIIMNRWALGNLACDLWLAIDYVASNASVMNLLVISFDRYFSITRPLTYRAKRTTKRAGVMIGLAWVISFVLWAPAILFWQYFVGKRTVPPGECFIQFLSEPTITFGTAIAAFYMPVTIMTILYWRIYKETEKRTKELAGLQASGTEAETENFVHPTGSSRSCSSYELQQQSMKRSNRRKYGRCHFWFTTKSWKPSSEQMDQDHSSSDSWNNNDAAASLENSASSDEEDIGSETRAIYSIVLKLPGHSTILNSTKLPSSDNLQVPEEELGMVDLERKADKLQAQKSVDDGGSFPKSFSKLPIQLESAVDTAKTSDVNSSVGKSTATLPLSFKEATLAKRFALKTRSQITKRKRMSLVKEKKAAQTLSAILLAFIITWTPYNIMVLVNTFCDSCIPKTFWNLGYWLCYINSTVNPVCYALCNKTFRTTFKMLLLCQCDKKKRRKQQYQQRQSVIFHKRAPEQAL

[10] = target: T2, Muscarinic acetylcholine receptor M4 (Homo sapiens) (UniProt P08173)
T2 sequence (whole entry): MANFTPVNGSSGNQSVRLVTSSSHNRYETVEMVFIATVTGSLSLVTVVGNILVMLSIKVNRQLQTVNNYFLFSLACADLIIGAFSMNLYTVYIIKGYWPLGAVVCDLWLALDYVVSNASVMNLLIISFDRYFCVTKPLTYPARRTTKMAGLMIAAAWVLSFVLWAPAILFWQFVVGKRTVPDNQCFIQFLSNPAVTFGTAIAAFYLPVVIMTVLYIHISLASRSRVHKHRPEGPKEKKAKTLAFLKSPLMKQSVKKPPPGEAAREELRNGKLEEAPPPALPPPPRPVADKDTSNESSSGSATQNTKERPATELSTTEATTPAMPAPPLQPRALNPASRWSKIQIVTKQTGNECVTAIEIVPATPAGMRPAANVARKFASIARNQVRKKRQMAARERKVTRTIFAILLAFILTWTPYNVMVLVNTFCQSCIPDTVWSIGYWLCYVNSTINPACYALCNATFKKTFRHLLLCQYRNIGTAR

[11] = target: Beta-1 adrenergic receptor (Homo sapiens) (UniProt P08588)
Chain of Beta-1 adrenergic receptor (Homo sapiens) (P08588 whole entry, looked up): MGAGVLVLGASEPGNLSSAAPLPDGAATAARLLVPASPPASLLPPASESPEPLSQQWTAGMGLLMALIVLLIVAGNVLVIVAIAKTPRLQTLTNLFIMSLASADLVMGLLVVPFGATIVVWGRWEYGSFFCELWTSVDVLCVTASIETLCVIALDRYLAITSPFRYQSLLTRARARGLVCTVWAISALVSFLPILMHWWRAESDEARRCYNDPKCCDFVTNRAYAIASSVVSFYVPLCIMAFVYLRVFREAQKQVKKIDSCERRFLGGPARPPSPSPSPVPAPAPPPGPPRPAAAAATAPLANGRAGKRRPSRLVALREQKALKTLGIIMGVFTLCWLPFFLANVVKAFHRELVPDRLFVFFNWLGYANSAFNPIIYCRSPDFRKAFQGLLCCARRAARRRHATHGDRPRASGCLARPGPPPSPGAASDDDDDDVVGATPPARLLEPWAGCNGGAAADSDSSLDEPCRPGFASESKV

[12] = target: T3, 5-hydroxytryptamine receptor 1A (Homo sapiens) (UniProt P08908)
T3 sequence (whole entry): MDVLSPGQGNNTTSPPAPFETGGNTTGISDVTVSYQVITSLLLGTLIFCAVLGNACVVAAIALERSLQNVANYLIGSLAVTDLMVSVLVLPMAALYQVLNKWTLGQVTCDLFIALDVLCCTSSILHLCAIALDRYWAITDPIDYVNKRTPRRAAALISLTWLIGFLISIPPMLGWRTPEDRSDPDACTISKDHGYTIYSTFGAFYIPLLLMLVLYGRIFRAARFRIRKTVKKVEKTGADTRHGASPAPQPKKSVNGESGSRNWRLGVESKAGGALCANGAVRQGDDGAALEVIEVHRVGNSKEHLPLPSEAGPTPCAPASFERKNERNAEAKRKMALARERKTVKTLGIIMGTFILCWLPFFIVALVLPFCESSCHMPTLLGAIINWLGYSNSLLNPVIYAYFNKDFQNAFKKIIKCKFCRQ

[13] = target: T4, Alpha-2C adrenergic receptor (Homo sapiens) (UniProt P18825)
T4 sequence (whole entry): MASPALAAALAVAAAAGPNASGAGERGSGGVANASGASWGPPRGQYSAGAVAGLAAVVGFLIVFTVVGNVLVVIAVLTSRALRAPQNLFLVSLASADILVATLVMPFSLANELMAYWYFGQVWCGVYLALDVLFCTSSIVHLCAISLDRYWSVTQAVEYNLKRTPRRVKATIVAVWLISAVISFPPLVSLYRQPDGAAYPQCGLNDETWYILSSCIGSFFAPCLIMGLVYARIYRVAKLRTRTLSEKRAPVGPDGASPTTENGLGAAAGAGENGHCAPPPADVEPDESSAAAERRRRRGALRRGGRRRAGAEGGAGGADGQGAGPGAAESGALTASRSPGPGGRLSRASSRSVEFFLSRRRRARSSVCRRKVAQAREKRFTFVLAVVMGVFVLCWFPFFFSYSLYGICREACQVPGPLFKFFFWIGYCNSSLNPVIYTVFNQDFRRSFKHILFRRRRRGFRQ

[14] = target: Sigma intracellular receptor 2 (Homo sapiens, UniProt Q5BJF2)
Chain of Sigma intracellular receptor 2 (Q5BJF2 whole entry): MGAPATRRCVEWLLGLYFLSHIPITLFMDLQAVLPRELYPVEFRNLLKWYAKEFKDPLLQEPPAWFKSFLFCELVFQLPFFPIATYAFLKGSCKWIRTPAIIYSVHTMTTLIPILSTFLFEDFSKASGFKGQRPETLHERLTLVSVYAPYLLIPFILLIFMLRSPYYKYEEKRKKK

[15] = target: 5-hydroxytryptamine receptor 3A (Homo sapiens) (UniProt P46098)
Chain of 5-hydroxytryptamine receptor 3A (Homo sapiens) (P46098 whole entry): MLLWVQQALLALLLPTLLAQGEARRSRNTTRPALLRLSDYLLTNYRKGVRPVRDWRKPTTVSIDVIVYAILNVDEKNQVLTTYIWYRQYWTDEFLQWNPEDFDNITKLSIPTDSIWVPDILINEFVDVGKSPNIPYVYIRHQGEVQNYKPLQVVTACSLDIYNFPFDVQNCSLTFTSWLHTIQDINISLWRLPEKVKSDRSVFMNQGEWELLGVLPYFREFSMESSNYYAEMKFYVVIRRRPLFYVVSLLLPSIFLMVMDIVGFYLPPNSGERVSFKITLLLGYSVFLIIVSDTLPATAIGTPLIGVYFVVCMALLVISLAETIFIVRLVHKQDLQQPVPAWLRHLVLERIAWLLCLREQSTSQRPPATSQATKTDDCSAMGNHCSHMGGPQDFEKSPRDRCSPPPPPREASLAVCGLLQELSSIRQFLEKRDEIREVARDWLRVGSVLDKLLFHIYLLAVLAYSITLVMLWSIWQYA

[16] = target: 5-hydroxytryptamine receptor 5A (Homo sapiens) (UniProt P47898)
Chain of 5-hydroxytryptamine receptor 5A (Homo sapiens) (P47898 whole entry): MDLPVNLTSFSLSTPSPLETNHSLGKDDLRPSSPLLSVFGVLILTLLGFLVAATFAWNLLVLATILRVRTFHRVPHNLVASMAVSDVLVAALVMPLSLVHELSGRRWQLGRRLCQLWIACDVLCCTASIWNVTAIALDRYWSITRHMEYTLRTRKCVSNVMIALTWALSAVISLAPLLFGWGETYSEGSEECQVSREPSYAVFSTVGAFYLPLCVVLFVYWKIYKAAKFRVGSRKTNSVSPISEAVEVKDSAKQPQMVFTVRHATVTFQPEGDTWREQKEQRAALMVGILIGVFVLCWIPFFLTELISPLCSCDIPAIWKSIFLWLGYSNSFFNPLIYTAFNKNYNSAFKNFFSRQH

Chain of 5-hydroxytryptamine receptor 2B (Homo sapiens) (P41595 whole entry): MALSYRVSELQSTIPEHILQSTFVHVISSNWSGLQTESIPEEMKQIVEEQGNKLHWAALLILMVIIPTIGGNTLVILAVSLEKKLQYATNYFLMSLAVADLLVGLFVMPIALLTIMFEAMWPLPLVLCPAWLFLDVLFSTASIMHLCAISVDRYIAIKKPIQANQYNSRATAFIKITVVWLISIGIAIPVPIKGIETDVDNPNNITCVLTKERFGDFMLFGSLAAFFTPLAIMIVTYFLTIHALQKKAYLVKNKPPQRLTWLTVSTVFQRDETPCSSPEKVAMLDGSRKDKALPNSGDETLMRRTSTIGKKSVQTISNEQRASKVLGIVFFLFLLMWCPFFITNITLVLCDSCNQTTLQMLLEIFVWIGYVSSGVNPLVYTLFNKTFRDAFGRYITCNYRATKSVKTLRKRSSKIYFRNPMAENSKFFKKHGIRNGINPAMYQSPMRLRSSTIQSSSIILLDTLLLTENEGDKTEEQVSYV
Chain of 5-hydroxytryptamine receptor 1B (Homo sapiens) (P28222 whole entry): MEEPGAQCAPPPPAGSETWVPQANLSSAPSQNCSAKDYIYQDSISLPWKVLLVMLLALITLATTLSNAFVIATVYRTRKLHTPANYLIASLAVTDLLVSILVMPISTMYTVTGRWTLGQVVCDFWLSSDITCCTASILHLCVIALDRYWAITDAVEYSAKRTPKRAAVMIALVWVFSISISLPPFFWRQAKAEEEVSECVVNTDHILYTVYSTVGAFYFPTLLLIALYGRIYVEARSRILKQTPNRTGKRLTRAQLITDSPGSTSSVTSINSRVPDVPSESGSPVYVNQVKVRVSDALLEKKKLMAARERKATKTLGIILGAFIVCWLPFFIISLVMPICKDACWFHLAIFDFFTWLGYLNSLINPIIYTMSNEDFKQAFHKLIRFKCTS

| Compound | inhibition [1] [%] | inhibition [2] [%] | inhibition [3] [%] | inhibition [4] [%] | inhibition [5] [%] | inhibition [6] [%] | inhibition [7] [%] | inhibition [8] [%] | inhibition [9] [%] | inhibition [10] [%] | inhibition [11] [%] | inhibition [12] [%] | inhibition [13] [%] | inhibition [14] [%] | inhibition [15] [%] | inhibition [16] [%] |
| --- | --- | --- | --- | --- | --- | --- | --- | --- | --- | --- | --- | --- | --- | --- | --- | --- |
| Cc1c(N2CCNCC2)nc2ccc(Br)cc2c1C(=O)NC[C@H](CCC(=O)O)c1ccccc1Cl [BAY-403] | -0.16 | 31 | 15.2 | 5.34 | 12.7 | -2.31 | 5.89 | 13 | 13.7 | 16.2 | 12.6 | 47.1 | 5.7 | 60 | 86 | 11.3 |
| Cc1c(N2CCCC2)nc2ccc(Br)cc2c1C(=O)NC[C@H](CCC(=O)O)c1ccccc1Cl [BAY-6672] | 8.16 | 5.5 | -2.2 | -7.59 | 2.98 | -4.96 | 1.48 | 0.4 | -0.57 | 19.4 | 15.7 | 5.62 | 16.1 | 8.52 | 37.7 | -5.32 |
